ChEMBL document CHEMBL4507257, “Data for DCP probe ABT-100” (2021)

Legend:
[1] = target: Mu-type opioid receptor (Homo sapiens) (UniProt P35372); settings: Compound concentration 10.0 uM
[2] = target: Calcium/calmodulin-dependent protein kinase type 1B (Homo sapiens, UniProt Q6P2M8); settings: Compound concentration 1000.0 nM
[3] = target: Serine/threonine-protein kinase 33 (Homo sapiens) (UniProt Q9BYT3); settings: Compound concentration 1000.0 nM
[4] = test system: Phosphatidylinositol 4,5-bisphosphate 3-kinase catalytic subunit alpha isoform (Homo sapiens), P42336 [I800L]; settings: Compound concentration 1000.0 nM
[5] = target: Alpha-2A adrenergic receptor (Homo sapiens) (UniProt P08913); settings: Compound concentration 10.0 uM
[6] = target: Serine/threonine-protein kinase DCLK2 (Homo sapiens) (UniProt Q8N568); settings: Compound concentration 1000.0 nM
[7] = target: Muscarinic acetylcholine receptor M3 (Homo sapiens) (UniProt P20309); settings: Compound concentration 10.0 uM
[8] = target: Eukaryotic translation initiation factor 2-alpha kinase 1 (Homo sapiens) (UniProt Q9BQI3); settings: Compound concentration 1000.0 nM
[9] = target: Rho-associated protein kinase 1 (Homo sapiens) (UniProt Q13464); settings: Compound concentration 1000.0 nM
[10] = test system: Tyrosine-protein kinase ABL1 (Homo sapiens), P00519 [F317I]; settings: Compound concentration 1000.0 nM
[11] = target: Maternal embryonic leucine zipper kinase (Homo sapiens) (UniProt Q14680); settings: Compound concentration 1000.0 nM
[12] = test system: Hepatocyte growth factor receptor (Homo sapiens), P08581 [Y1235D]; settings: Compound concentration 1000.0 nM
[13] = target: G protein-coupled receptor kinase 4 (Homo sapiens) (UniProt P32298); settings: Compound concentration 1000.0 nM
[14] = target: Cyclin-dependent kinase 4 (Homo sapiens) (UniProt P11802); settings: Compound concentration 1000.0 nM
[15] = target: Cyclin-G-associated kinase (Homo sapiens) (UniProt O14976); settings: Compound concentration 1000.0 nM
[16] = target: Serine/threonine-protein kinase TAO2 (Homo sapiens) (UniProt Q9UL54); settings: Compound concentration 1000.0 nM
[17] = target: Alpha-2B adrenergic receptor (Homo sapiens) (UniProt P18089); settings: Compound concentration 10.0 uM
[18] = target: Calcium/calmodulin-dependent protein kinase type II subunit beta (Homo sapiens) (UniProt Q13554); settings: Compound concentration 1000.0 nM
[19] = target: Mitogen-activated protein kinase kinase kinase 9 (Homo sapiens) (UniProt P80192); settings: Compound concentration 1000.0 nM
[20] = target: Tyrosine-protein kinase Lck (Homo sapiens) (UniProt P06239); settings: Compound concentration 1000.0 nM
[21] = target: Tyrosine-protein kinase ABL1 (Homo sapiens) (UniProt P00519); settings: Compound concentration 1000.0 nM
[22] = target: Myosin light chain kinase (Homo sapiens) (UniProt Q32MK0); settings: Compound concentration 1000.0 nM
[23] = target: Tyrosine-protein kinase JAK2 (Homo sapiens) (UniProt O60674); settings: Compound concentration 1000.0 nM
[24] = test system: Leucine-rich repeat serine/threonine-protein kinase 2 (Homo sapiens), Q5S007 [G2019S]; settings: Compound concentration 1000.0 nM
[25] = target: Activin receptor type-1 (Homo sapiens) (UniProt Q04771); settings: Compound concentration 1000.0 nM
[26] = target: 5-hydroxytryptamine receptor 1B (Homo sapiens) (UniProt P28222); settings: Compound concentration 10.0 uM
[27] = target: Vascular endothelial growth factor receptor 2 (Homo sapiens) (UniProt P35968); settings: Compound concentration 1000.0 nM
[28] = target: Ribosomal protein S6 kinase alpha-6 (Homo sapiens) (UniProt Q9UK32); settings: Compound concentration 1000.0 nM
[29] = target: Histamine H3 receptor (Homo sapiens) (UniProt Q9Y5N1); settings: Compound concentration 10.0 uM
[30] = test system: Phosphatidylinositol 4,5-bisphosphate 3-kinase catalytic subunit alpha isoform (Homo sapiens), P42336 [Q546K]; settings: Compound concentration 1000.0 nM
[31] = target: Cytoplasmic tyrosine-protein kinase BMX (Homo sapiens) (UniProt P51813); settings: Compound concentration 1000.0 nM
[32] = target: Dual serine/threonine and tyrosine protein kinase (Homo sapiens) (UniProt Q6XUX3); settings: Compound concentration 1000.0 nM
[33] = target: Interleukin-1 receptor-associated kinase 1 (Homo sapiens) (UniProt P51617); settings: Compound concentration 1000.0 nM
[34] = target: G protein-coupled receptor kinase 3 (Homo sapiens) (UniProt P35626); settings: Compound concentration 1000.0 nM
[35] = target: Transient receptor potential cation channel subfamily M member 6 (Homo sapiens) (UniProt Q9BX84); settings: Compound concentration 1000.0 nM
[36] = target: T1, 5-hydroxytryptamine receptor 2C (Homo sapiens) (UniProt P28335); settings: Compound concentration 10.0 uM
T1 sequence (whole entry): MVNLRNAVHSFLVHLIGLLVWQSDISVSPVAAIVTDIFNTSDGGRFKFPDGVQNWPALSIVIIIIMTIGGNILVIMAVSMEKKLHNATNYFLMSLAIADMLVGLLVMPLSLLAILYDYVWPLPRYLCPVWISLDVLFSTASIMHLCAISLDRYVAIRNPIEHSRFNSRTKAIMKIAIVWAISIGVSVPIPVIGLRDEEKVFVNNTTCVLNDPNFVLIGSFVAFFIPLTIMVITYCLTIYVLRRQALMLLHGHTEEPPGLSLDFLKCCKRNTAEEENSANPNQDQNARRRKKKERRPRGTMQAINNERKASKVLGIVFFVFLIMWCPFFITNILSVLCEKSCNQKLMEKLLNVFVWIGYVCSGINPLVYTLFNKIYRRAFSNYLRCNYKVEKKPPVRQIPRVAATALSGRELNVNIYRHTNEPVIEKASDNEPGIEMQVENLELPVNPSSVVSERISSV

[37] = target: Phosphorylase b kinase gamma catalytic chain, skeletal muscle/heart isoform (Homo sapiens) (UniProt Q16816); settings: Compound concentration 1000.0 nM
[38] = target: Serine/threonine-protein kinase Nek9 (Homo sapiens) (UniProt Q8TD19); settings: Compound concentration 1000.0 nM
[39] = target: Serine/threonine-protein kinase LATS2 (Homo sapiens) (UniProt Q9NRM7); settings: Compound concentration 1000.0 nM

Leucine-rich repeat serine/threonine-protein kinase 2 (Homo sapiens), Q5S007 [G2019S], sequence (Q5S007 whole entry G2019S): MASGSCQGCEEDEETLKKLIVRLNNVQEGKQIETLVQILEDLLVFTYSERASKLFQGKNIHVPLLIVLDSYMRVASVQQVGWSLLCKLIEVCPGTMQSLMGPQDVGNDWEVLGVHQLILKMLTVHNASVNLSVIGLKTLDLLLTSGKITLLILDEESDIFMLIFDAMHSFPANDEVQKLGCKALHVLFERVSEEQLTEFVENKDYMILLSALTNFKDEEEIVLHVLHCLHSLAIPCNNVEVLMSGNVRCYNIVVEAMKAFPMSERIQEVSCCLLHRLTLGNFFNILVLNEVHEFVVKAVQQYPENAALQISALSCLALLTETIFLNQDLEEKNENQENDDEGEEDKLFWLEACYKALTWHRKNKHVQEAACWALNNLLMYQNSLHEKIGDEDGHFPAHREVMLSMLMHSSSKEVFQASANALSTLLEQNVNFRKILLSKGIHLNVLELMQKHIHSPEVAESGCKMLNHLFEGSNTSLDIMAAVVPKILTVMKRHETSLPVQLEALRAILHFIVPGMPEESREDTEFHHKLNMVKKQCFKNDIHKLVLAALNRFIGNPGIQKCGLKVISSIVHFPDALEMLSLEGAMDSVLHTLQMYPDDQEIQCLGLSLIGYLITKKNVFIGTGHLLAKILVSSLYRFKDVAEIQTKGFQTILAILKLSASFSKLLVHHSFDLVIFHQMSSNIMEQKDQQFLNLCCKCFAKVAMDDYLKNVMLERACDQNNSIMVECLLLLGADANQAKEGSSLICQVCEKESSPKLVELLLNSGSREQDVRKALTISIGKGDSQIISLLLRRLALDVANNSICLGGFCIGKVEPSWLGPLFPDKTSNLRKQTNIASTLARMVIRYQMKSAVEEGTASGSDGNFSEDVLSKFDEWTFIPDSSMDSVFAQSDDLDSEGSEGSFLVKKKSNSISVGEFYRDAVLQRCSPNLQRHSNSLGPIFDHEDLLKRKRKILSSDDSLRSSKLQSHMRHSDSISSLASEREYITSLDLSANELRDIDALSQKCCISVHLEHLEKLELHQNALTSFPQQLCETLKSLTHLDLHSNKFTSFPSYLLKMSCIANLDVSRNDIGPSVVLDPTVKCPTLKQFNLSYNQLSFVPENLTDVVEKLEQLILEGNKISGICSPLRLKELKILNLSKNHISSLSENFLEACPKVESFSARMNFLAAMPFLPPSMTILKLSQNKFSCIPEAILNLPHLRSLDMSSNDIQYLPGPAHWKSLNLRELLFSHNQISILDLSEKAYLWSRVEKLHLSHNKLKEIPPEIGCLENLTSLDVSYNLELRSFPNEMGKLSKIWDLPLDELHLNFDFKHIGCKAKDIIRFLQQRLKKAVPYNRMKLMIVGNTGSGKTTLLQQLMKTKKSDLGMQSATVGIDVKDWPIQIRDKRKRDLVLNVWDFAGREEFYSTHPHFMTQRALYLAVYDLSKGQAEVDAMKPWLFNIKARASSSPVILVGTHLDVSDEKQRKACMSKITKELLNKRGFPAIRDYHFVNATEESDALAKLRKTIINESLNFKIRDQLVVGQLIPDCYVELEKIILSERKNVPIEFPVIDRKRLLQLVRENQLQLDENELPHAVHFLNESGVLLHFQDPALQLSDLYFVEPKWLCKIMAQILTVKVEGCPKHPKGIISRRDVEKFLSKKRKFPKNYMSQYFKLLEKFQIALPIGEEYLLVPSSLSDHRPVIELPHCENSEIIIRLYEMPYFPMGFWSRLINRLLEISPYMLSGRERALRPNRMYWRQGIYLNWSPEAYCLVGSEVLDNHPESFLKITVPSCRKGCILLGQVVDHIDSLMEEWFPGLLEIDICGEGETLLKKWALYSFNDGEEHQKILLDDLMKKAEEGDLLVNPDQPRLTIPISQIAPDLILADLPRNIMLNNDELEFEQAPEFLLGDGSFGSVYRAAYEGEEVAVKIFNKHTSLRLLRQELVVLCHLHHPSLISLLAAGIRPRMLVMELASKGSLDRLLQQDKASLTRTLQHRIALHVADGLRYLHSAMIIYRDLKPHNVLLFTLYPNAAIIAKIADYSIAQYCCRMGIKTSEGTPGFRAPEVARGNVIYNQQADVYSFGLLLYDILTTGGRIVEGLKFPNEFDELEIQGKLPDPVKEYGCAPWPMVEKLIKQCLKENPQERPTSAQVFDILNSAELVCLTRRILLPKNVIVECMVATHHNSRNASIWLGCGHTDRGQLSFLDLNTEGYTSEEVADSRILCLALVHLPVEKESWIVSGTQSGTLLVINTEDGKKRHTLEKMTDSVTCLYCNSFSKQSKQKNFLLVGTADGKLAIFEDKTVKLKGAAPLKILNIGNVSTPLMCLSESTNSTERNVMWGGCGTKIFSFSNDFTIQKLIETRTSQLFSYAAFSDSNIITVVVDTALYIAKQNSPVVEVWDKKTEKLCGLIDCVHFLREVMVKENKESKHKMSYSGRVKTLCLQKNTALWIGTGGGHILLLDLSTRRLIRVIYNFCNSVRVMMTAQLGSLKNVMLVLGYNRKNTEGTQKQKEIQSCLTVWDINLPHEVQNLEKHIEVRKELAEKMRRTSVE
Myosin light chain kinase (Homo sapiens), sequence (Q32MK0 whole entry): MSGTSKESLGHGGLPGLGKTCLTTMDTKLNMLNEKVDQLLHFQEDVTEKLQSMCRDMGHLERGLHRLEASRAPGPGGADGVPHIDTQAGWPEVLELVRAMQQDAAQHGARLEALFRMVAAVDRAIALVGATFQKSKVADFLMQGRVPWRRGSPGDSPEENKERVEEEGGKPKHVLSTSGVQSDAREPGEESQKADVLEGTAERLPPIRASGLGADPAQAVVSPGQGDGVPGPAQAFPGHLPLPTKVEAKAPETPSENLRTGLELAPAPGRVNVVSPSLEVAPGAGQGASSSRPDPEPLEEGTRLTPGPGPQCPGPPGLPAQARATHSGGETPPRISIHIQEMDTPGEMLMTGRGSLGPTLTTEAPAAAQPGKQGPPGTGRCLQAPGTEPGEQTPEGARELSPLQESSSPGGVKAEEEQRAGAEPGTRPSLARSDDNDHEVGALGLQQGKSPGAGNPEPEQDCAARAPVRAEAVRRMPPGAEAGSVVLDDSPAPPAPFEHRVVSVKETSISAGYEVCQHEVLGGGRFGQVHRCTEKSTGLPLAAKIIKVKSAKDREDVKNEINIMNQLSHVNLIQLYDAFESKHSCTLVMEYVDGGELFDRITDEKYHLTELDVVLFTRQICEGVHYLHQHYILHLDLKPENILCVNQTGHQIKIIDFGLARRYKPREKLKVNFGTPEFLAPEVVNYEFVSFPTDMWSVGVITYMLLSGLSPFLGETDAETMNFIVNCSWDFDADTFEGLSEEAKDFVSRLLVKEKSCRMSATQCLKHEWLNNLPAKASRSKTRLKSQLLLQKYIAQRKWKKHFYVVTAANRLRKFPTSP
Serine/threonine-protein kinase Nek9 (Homo sapiens), sequence (Q8TD19 whole entry): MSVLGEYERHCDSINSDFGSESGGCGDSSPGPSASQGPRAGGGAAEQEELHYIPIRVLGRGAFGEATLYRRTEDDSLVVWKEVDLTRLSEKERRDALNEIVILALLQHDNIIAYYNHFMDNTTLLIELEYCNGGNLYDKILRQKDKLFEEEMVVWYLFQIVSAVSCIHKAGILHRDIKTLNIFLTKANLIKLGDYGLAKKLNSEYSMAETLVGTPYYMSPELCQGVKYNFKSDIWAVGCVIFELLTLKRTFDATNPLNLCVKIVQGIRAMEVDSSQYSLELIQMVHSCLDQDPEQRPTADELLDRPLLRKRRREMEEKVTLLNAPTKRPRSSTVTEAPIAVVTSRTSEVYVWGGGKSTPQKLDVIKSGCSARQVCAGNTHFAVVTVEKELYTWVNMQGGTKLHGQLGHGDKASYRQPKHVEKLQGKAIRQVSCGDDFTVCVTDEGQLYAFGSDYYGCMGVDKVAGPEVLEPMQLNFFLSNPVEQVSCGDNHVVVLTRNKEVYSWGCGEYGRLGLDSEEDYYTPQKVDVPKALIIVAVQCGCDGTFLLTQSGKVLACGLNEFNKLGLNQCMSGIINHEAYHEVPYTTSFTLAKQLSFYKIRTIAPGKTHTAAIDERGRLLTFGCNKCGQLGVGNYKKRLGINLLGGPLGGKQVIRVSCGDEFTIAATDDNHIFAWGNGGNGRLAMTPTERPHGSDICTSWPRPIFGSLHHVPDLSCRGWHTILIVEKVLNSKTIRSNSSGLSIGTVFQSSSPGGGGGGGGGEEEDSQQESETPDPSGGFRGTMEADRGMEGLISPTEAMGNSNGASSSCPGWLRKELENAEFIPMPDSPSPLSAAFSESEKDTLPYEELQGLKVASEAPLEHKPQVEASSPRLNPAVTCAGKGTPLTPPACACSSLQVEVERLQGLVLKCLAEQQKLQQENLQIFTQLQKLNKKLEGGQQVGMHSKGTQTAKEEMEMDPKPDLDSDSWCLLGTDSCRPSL
Alpha-2B adrenergic receptor (Homo sapiens), sequence (P18089 whole entry): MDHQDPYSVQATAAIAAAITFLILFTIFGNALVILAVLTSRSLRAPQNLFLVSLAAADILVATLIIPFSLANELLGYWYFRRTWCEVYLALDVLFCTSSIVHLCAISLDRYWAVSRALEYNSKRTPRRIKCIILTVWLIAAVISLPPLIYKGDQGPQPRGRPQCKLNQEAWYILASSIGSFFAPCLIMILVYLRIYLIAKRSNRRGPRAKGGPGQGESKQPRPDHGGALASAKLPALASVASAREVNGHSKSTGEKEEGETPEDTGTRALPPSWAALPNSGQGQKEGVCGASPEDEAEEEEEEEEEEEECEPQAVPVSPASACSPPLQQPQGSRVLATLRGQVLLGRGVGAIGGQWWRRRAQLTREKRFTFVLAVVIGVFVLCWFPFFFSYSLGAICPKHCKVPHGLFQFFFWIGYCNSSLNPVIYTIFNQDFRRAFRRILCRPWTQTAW
Calcium/calmodulin-dependent protein kinase type 1B, sequence (Q6P2M8 whole entry): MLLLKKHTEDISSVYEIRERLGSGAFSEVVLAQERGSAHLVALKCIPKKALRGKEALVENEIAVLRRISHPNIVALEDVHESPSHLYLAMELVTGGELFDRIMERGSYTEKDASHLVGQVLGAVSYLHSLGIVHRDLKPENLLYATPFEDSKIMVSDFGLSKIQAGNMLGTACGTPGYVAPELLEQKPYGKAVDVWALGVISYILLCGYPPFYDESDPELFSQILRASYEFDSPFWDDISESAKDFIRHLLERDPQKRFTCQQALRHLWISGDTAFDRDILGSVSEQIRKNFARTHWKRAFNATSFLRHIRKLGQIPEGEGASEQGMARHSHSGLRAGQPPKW

Structure (SMILES): Cn1cncc1[C@@](O)(COc1ccc(C#N)cc1-c1ccc(OC(F)(F)F)cc1)c1ccc(C#N)cc1 [A-108]
- inhibition [1]: -3.25%
- residual activity [2]: 100%
- residual activity [3]: 69%
- residual activity [4]: 84%
- inhibition [5]: 3.37%
- residual activity [6]: 100%
- inhibition [7]: 2.79%
- residual activity [8]: 100%
- residual activity [9]: 100%
- residual activity [10]: 88%
- residual activity [11]: 79%
- residual activity [12]: 100%
- residual activity [13]: 56%
- residual activity [14]: 93%
- residual activity [15]: 91%
- residual activity [16]: 98%
- inhibition [17]: 20%
- residual activity [18]: 90%
- residual activity [19]: 98%
- residual activity [20]: 100%
- residual activity [21]: 96%
- residual activity [22]: 96%
- residual activity [23]: 65%
- residual activity [24]: 91%
- residual activity [25]: 100%
- inhibition [26]: 3.34%
- residual activity [27]: 100%
- residual activity [28]: 94%
- inhibition [29]: 17.8%
- residual activity [30]: 85%
- residual activity [31]: 64%
- residual activity [32]: 100%
- residual activity [33]: 73%
- residual activity [34]: 100%
- residual activity [35]: 100%
- inhibition [36]: 17.1%
- residual activity [37]: 95%
- residual activity [38]: 100%
- residual activity [39]: 100%

Structure (SMILES): Cn1cncc1[C@](O)(COc1ccc(C#N)cc1-c1ccc(OC(F)(F)F)cc1)c1ccc(C#N)cc1 [ABT-100]
- inhibition [1]: 16.4%
- residual activity [2]: 60%
- residual activity [3]: 74%
- residual activity [4]: 85%
- inhibition [5]: 32.2%
- residual activity [6]: 98%
- inhibition [7]: 23.3%
- residual activity [8]: 100%
- residual activity [9]: 100%
- residual activity [10]: 100%
- residual activity [11]: 74%
- residual activity [12]: 78%
- residual activity [13]: 62%
- residual activity [14]: 100%
- residual activity [15]: 97%
- residual activity [16]: 98%
- inhibition [17]: 8.46%
- residual activity [18]: 85%
- residual activity [19]: 81%
- residual activity [20]: 82%
- residual activity [21]: 100%
- residual activity [22]: 100%
- residual activity [23]: 91%
- residual activity [24]: 92%
- residual activity [25]: 78%
- inhibition [26]: -4.28%
- residual activity [27]: 96%
- residual activity [28]: 91%
- inhibition [29]: 5.92%
- residual activity [30]: 82%
- residual activity [31]: 75%
- residual activity [32]: 90%
- residual activity [33]: 83%
- residual activity [34]: 48%
- residual activity [35]: 100%
- inhibition [36]: 0.26%
- residual activity [37]: 63%
- residual activity [38]: 72%
- residual activity [39]: 100%
